The target of test [1] is T1, Prostaglandin E2 receptor EP1 subtype (Mus musculus, UniProt P35375).
T1 sequence (P35375 whole entry): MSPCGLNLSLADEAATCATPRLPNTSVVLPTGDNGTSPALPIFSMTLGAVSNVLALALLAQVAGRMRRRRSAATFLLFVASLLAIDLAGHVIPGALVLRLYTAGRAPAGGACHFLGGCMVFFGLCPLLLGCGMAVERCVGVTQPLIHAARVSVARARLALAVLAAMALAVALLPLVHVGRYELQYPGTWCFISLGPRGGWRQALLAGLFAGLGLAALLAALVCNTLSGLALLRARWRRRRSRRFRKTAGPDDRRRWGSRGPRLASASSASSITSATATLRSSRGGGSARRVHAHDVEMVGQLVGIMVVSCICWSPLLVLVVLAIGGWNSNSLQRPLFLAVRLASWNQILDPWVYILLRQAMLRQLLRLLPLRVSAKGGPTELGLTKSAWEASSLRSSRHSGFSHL
Briefly: Binding affinity for mouse Prostanoid EP1 receptor.

For test [2], the target named is T2, Prostaglandin D2 receptor (Mus musculus, UniProt P70263).
T2 sequence (P70263 whole entry): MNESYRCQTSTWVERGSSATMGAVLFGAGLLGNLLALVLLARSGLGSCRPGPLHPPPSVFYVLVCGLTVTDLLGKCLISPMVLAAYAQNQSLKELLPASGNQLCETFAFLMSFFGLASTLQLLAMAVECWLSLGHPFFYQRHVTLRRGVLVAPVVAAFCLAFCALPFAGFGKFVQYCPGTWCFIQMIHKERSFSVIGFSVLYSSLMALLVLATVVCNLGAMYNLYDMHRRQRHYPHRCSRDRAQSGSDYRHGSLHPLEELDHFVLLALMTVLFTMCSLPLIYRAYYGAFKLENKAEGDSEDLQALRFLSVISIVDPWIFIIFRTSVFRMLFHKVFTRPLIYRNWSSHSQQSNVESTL
The experiment in a line: Binding affinity for mouse Prostanoid DP receptor.

Test [3] has as its target Prostaglandin E2 receptor EP4 subtype (Mus musculus, UniProt P32240). Briefly: Binding affinity for mouse Prostanoid EP4 receptor.
Test [4] addresses T2, Prostaglandin D2 receptor. The experiment in a line: Inhibition of mouse Prostanoid DP receptor.
Test [5] concerns the target Prostaglandin E2 receptor EP2 subtype (Mus musculus, UniProt Q62053). Briefly: Binding affinity for mouse Prostanoid EP2 receptor.
For test [6], the target named is T3, Prostaglandin E2 receptor EP3 subtype (Mus musculus, UniProt P30557).
T3 sequence (P30557 whole entry): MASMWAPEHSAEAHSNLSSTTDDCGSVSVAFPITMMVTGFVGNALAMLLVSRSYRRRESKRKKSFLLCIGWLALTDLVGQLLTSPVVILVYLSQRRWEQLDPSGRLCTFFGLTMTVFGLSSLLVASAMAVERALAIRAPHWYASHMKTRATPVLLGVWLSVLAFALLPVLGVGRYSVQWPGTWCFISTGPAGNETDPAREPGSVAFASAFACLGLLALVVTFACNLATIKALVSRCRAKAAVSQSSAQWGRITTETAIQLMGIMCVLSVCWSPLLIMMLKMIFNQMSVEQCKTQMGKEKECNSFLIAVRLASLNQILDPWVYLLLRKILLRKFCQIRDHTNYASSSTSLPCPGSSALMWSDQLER
The experiment in a line: Binding affinity for mouse Prostanoid EP3 receptor.

pIC50, pKi: −log10 of the molar value.

Results on 13 molecules are retold here after ChEMBL document CHEMBL1137193, “Discovery of new chemical leads for prostaglandin D2 receptor antagonists” (Bioorg Med Chem Lett, 2004).

A word on the pKi: it is −log10 of the Ki, conventionally taken in molar units. A low value points to a high Ki. By pIC50 is commonly meant the IC50 on a negative log10 scale, so that one unit is a factor of ten. Lower therefore signals a high IC50.

Sequence of Prostaglandin E2 receptor EP4 subtype (P32240 whole entry): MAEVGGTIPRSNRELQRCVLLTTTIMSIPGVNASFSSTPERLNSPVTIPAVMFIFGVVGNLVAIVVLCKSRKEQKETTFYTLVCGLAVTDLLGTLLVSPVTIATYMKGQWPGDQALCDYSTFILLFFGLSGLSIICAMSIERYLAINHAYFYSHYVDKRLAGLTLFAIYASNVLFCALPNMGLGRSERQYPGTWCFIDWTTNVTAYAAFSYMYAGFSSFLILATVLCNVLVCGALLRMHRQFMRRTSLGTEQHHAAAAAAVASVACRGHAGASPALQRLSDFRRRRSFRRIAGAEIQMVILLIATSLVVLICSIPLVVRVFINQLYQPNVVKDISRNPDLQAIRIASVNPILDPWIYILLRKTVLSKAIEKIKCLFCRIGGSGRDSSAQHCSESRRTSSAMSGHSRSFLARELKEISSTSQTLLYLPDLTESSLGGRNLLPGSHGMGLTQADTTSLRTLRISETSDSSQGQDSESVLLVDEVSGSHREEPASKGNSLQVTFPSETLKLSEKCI
Sequence of Prostaglandin E2 receptor EP2 subtype (Q62053 whole entry): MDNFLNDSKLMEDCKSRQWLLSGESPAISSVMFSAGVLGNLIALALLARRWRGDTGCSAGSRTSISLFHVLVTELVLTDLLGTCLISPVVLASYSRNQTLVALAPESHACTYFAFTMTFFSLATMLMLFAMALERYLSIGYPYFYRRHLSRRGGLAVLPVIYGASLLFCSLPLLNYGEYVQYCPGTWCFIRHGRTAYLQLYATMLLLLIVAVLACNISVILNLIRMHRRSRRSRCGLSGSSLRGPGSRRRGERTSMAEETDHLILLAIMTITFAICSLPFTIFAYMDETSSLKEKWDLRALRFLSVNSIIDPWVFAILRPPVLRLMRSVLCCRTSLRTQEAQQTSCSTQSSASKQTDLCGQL

As for `CCCCOc1ccc(C(=O)n2c(C)c(CC(=O)O)c3cc(OC)ccc32)cc1`, the negative logarithm of the Ki (pKi) in test [1] is under 5.00; in test [2] it was 6.57; in test [3], under 5.00; in test [5], 5.33; in test [6], under 5.00. The same molecule had a negative logarithm of the IC50 (pIC50) in test [4] of 5.80.
Consider `CCCCOc1ccc(C(=O)n2c(C)c(CCC(=O)O)c3cc(OC)ccc32)cc1`, for which the negative-log Ki (pKi) was under 5.00 in test [1]; 6.55 in test [2]; 5.52 in test [3]; 5.24 in test [5]; under 5.00 in test [6]. The pIC50 in test [4] was 5.82.
With `CCCCOc1ccc(C(=O)n2c(C)c(CC(=O)O)c3ccccc32)cc1`, the pKi in test [1] is 5.28; in test [2], 6.96; in test [3], under 5.00; in test [5] it was 5.68; in test [6] it was under 5.00. In addition, the pIC50 in test [4] was 5.41.
Take `CCCCOc1ccc(C(=O)n2c(CC)c(CC(=O)O)c3cc(OC)ccc32)cc1`: the negative-log Ki (pKi) was 5.42 in test [1]; 5.82 in test [2]; under 5.00 in test [3]; 5.54 in test [5]; under 5.00 in test [6].
`CCCCOc1ccc(C(=O)n2c(C)c(CC(=O)O)c3cc(O)ccc32)cc1`: the negative-log Ki (pKi) in test [1] is under 5.00; in test [2] it was 5.72; in test [3], under 5.00; in test [5], 5.48; in test [6], under 5.00. In test [4], this molecule showed a negative-log IC50 (pIC50) of under 5.00.
`CCCCOc1cccc(C(=O)n2c(C)c(CC(=O)O)c3cc(OC)ccc32)c1`: the pKi in test [1] was under 5.00; in test [2] it was 6.39; in test [3] it was under 5.00; in test [5], 5.77; in test [6], under 5.00. In addition, the pIC50 in test [4] is 5.60.
In the case of `COc1ccc2c(c1)c(CC(=O)O)c(C)n2C(=O)c1ccc(Cl)cc1` [INDOMETHACIN], the negative-log Ki (pKi) in test [1], in test [2], in test [3], in test [5] and in test [6] was under 5.00 throughout. This molecule also had a negative-log IC50 (pIC50) in test [4] of under 5.00.
For `CCCCOc1ccc(C(=O)n2c(C)c(CC(=O)O)c3cc(C)ccc32)cc1`, the pKi in test [1] was 5.30; in test [2], 6.82; in test [3], 5.66; in test [5], 5.77; in test [6], under 5.00. Further, in test [4], the negative logarithm of the IC50 (pIC50) was 5.54.
For the molecule `CCCCOc1ccc(C(=O)n2c(C)c(CCCC(=O)O)c3cc(OC)ccc32)cc1`, the negative-log Ki (pKi) was under 5.00 in test [1]; 6.72 in test [2]; 5.82 in test [3]; 5.57 in test [5]; 5.62 in test [6]. Moreover, in test [4], the negative-log IC50 (pIC50) is 6.04.
Consider `CCCCOc1ccc(C(=O)n2c(C)c(CCCCC(=O)O)c3cc(OC)ccc32)cc1`, for which the negative-log Ki (pKi) in test [1] is under 5.00; in test [2], 6.40; in test [3], 5.38; in test [5], 5.28; in test [6], under 5.00. The same molecule showed a negative-log IC50 (pIC50) in test [4] of 5.35.
`CCCCOc1ccccc1C(=O)n1c(C)c(CC(=O)O)c2cc(OC)ccc21`: the negative logarithm of the Ki (pKi) in test [1] was 5.19; in test [2], under 5.00; in test [3], under 5.00; in test [5] it was under 5.00; in test [6], under 5.00.
Regarding `CCCCOc1ccc(C(=O)n2cc(CC(=O)O)c3cc(OC)ccc32)cc1`, the negative-log Ki (pKi) was under 5.00 in test [1]; 5.66 in test [2]; under 5.00 in test [3]; 5.05 in test [5]; under 5.00 in test [6].
`CCCCOc1ccc(C(=O)n2c(C)c(C(=O)O)c3cc(OC)ccc32)cc1`: the pKi in test [1] is under 5.00; in test [2], 6.03; in test [3], under 5.00; in test [5] it was under 5.00; in test [6] it was under 5.00. In test [4], this molecule had a pIC50 of 5.40.
